Data reported in patent publication US20100292179A1, “TARGET” (The University of Durham, priority 2006, published 2010).
Starred links: 1 amine or outer side, 2 acyl side, 3 side chain; linkers in the order of their positions; H or OH if unused. Non-standard residues stand in square brackets, D forms with d. Residues, ends and D or L forms follow the SMILES beside them. X1 = CC[C@@H](C)[C@@H](O[*:1])C(=O)[*:2]; NMeVal(β-OH) = CN[C@H](C(=O)O)C(C)(C)O; NMeF = CN[C@@H](Cc1ccccc1)C(=O)O; aIle = CC[C@@H](C)[C@H](N)C(=O)O; NMeV = CN[C@H](C(=O)O)C(C)C

Legend:
[1] = tested on: T. cruzi enzyme (TcIPCS); conditions: even at levels 1000 fold higher than that which inhibit the S. cerevisiae enzyme; crude parasite membrane extracts; cited from earlier work
[2] = tested on: YPH499-HIS-GAL-AUR1 complemented with LmIPCS; test: Agar diffusion assay, yeast mutant rescued with LmIPCS; assay type: cell-based, S. cerevisiae
Method: (§1) A. Volumes of 1, 2 and 3 μl of 25 μM Aureobasidin A (AbA), 1 mM myriocin (MYR), 25 μM cycloheximide (CYC) and DMSO as a control (CTL) spotted onto yeast plates prepared as described in Experimental Procedures. B. Volumes of 1, 2 and 3 μl of 100 μM Aureobasidin A spotted onto yeast plates prepared as described in Experimental Procedures.
(§2) YPH499—wild type yeast; ScIPCS—YPH499-HIS-GAL-AUR1 pRS426 ScIPCS; LmIPCS—YPH499-HIS-GAL-AUR1 pRS426 LmIPCS; AGD—yeast sphingolipid bypass mutant, negative control.
(§3) Agar diffusion assay—Wild type YPH499 yeast and the transgenic strain YPH499-HIS-GAL-AUR1 complemented with ScIPCS or LmIPCS were assayed for susceptibility to Aureobasidin A (Takara), myriocin (Sigma) and cycloheximide (Sigma) as previously described (19). Briefly, 2.4×10^7 logarithmically dividing cells were embedded in 15 ml of YPD agararose (2% dextrose, 1% yeast extract, 2% peptone, 0.8% agarose) on […] square Petri dishes (Sarstedt). Inhibitors were applied in DMSO at the concentrations described below and the dishes incubated at 30° C.
(§4) In this study, the diffusion assay system previously described, with the sphingolipid bypass mutant (AGD) as a negative control, was utilized (6,19).

[3] = tested on: AGD yeast sphingolipid bypass mutant; test: Agar diffusion assay, sphingolipid bypass mutant (negative control); assay type: cell-based, S. cerevisiae; conditions: 100 μM Aureobasidin A
Method: as §1, §2, §3, §4

[4] = molecular target: T1, IPC synthase (Saccharomyces cerevisiae, UniProt P36107); conditions: with respect to ceramide; cited from earlier work
T1 sequence (P36107 1-401): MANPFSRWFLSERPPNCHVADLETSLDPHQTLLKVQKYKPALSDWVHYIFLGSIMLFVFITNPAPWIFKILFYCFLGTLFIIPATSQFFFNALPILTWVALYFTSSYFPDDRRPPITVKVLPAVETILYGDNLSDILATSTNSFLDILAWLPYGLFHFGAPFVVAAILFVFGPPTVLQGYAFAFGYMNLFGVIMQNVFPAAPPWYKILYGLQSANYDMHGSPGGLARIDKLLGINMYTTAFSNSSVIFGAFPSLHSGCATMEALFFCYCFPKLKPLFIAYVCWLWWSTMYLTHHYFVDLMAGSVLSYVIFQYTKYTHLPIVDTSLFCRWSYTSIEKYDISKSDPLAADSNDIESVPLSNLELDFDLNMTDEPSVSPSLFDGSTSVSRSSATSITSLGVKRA
T1 sequence (Q06346 1-221 partner): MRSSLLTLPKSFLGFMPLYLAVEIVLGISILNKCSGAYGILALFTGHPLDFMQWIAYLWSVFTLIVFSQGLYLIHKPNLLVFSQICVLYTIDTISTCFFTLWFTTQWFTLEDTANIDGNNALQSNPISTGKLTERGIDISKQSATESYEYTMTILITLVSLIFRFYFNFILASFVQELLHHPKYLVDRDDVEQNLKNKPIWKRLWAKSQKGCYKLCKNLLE

[5] = tested on: samples from fungal Aspergillus spp.; conditions: lack of susceptibility attributed to efflux; cited from earlier work
[6] = tested on: Wild type YPH499 yeast; test: Agar diffusion assay, wild type yeast; assay type: cell-based, S. cerevisiae; conditions: FIG. 5A; 25 μM Aureobasidin A, 1 mM myriocin, 25 μM cycloheximide spotted
Method: as §1, §2, §3, §4

[7] = tested on: YPH499-HIS-GAL-AUR1 complemented with ScIPCS; test: Agar diffusion assay, yeast mutant rescued with ScIPCS; assay type: cell-based, S. cerevisiae; conditions: FIG. 5A; 25 μM Aureobasidin A, 1 mM myriocin, 25 μM cycloheximide spotted
Method: as §1, §2, §3, §4

[8] = tested on: parasites without an active sphingolipid biosynthetic pathway; test: Effect on Leishmania parasites without an active sphingolipid biosynthetic pathway; assay type: cell-based; conditions: 20 μM; data not shown
[9] = tested on: insect stage Leishmania; test: Effect on insect stage Leishmania in culture; assay type: cell-based; conditions: 20 μM; data not shown
[10] = FIG. 5A, 1, 2 and 3 μl of 25 μM Aureobasidin A, 1 mM myriocin, 25 μM cycloheximide spotted, 30° C.

Question: With `C=C1/C=C(\C)[C@H](CC)CC(=O)[C@H](C)C(=O)[C@@](O)(CO)C/C(OC)=C/[C@@H](C)C1` [rustmicin] as the compound, how does the “T. cruzi enzyme activity” value [1] read?
Answer: unaffected

Question: Which “T. cruzi enzyme activity” value [1] does the source give for `CC[C@@H](C)[C@@H]1NC(=O)[C@@H]2CCCN2C(=O)[C@H](Cc2ccccc2)N(C)C(=O)[C@H](Cc2ccccc2)NC(=O)[C@H](C(C)C)N(C)C(=O)[C@@H]([C@H](C)CC)OC(=O)[C@H](C(C)(C)O)N(C)C(=O)[C@H](CC(C)C)NC(=O)[C@H](C(C)C)N(C)C1=O` [Aureobasidin A] (cyclo(F[NMeF]P[aIle][NMeV]L[NMeVal(β-OH)][X1][NMeV])) here?
Answer: unaffected

Question: What about the “susceptibility in agar diffusion assay” value [2, 10] of the same compound?
Answer: resistant

Question: And the “susceptibility in agar diffusion assay” value ([2]; FIG. 5B, 100 μM Aureobasidin A, 1, 2 and 3 μl spotted)?
Answer: sensitivity of LmIPCS to the drug was evident

Question: What about the “inhibitory effect on growth” value [3] of the same compound?
Answer: lack of an inhibitory effect

Question: What about the mode of inhibition [4] of the same compound?
Answer: non-competitive inhibitor

Question: What about the “susceptibility of Aspergillus spp. samples” value [5] of the same compound?
Answer: only susceptible to Aureobasidin A in the presence of mammalian multi-drug resistance modulators

Question: What about the “susceptibility in agar diffusion assay” value [6] of the same compound?
Answer: sensitive

Question: What about the “susceptibility in agar diffusion assay” value [7] of the same compound?
Answer: sensitive

Question: What about the “activity against parasites in which LmIPCS is redundant, relative to insect stage Leishmania” value [8] of the same compound?
Answer: equivalent activity

Question: What about the “effect against insect stage Leishmania in culture” value [9] of the same compound?
Answer: exhibited an effect

Question: What about the “specificity of the inhibitor in Leishmania culture” value [9] of the same compound?
Answer: non-specific

Question: For `C[C@@H]1C[C@@H]([C@H](O)CC2CC(=O)NC(=O)C2)C(=O)[C@@H](C)C1` [cycloheximide], which “susceptibility in agar diffusion assay” value [2, 10] is on record?
Answer: sensitive

Question: And the “susceptibility in agar diffusion assay” value [6]?
Answer: sensitive

Question: And the “susceptibility in agar diffusion assay” value [7]?
Answer: sensitive

Question: Which results are given for `CCCCCCC(=O)CCCCCC/C=C/C[C@@H](O)[C@H](O)[C@@](N)(CO)C(=O)O` [myriocin]?
Answer: sensitivity compared with wild-type or mutant rescued with ScIPCS ([2]; FIG. 5A, 1 mM myriocin): increased sensitivity; susceptibility in agar diffusion assay [2, 10]: sensitive; susceptibility in agar diffusion assay [6]: sensitive; susceptibility in agar diffusion assay [7]: sensitive
